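96-well plates; 48 h exposure; 5 concentrations. Endpoints by linear interpolation between flanking doses. Not reached: highest tested concentration assigned. The concentration for 50% growth inhibition is given as GI50.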 Active and inactive are the calls of the source. Cut-off read from the data, not from the text of the source: active = GI50 up to about 1.1 µM and inactive = higher.
Experiments:
Assay in all cases: growth of human tumour cells (NCI), 48 h
[1] = test system: SR
[2] = test system: HCC 2998
[3] = test system: COLO 205
[4] = test system: OVCAR-4
[5] = test system: M14
[6] = test system: LOX IMVI
[7] = test system: A549
[8] = test system: OVCAR-5
[9] = test system: SK-OV-3
[10] = test system: SF-268
[11] = test system: KM12
[12] = test system: HT-29
[13] = test system: HOP-62
[14] = test system: NCI-H522
[15] = test system: OVCAR-8
[16] = test system: RPMI-8226

Measured: GI50

O=C(CC(O)(c1ccccc1)c1ccc(Cl)cc1)NC(=O)c1ccccc1O (configuration not stated)
inactive: [1] 11.6 µM | [2] 4.99 µM | [3] 14.4 µM | [4] 5.74 µM | [5] 12.4 µM | [6] 9.2 µM | [7] 8.07 µM | [8] 1.99 µM | [9] 17.1 µM | [10] 7.28 µM | [11] 3.86 µM | [12] 18.8 µM | [13] 6.52 µM | [14] 3.16 µM | [15] 4.54 µM

O=C(Cc1nc2sc3c(c2c(=O)[nH]1)CCCC3)Nc1ccccc1
inactive: [2] > 100 µM | [3] > 100 µM | [4] > 100 µM | [5] > 100 µM | [6] > 100 µM | [16] > 100 µM | [7] > 100 µM | [8] > 100 µM | [9] 43.5 µM | [10] > 100 µM | [11] > 100 µM | [12] > 100 µM | [13] > 100 µM | [14] > 100 µM | [15] > 100 µM

Oc1cccc(-c2cccc(O)n2)n1
inactive: [2] > 100 µM | [3] > 100 µM | [5] > 100 µM | [6] > 100 µM | [16] > 100 µM | [7] > 100 µM | [9] > 100 µM | [11] > 100 µM | [12] > 100 µM | [15] > 100 µM

Cn1nc(-c2cccc(-c3nn(C)/c(=N\CCO)s3)n2)s/c1=N/CCO
inactive: [1] > 100 µM | [3] > 100 µM | [4] > 100 µM | [5] > 100 µM | [6] > 100 µM | [16] 63 µM | [7] > 100 µM | [8] > 100 µM | [10] > 100 µM | [11] > 100 µM | [12] > 100 µM | [13] > 100 µM | [14] 36.5 µM | [15] > 100 µM

CC(=O)OC1(Sc2ccccc2)CC2[C@H]3COC(C)(C)O[C@H]3CC[C@@]2(C)CC1=O (some centres not stated)
inactive: [1] 10 µM | [3] 26.9 µM | [4] 71.6 µM | [5] 34.6 µM | [16] 21.1 µM | [7] 43.2 µM | [8] > 100 µM | [9] 44.2 µM | [11] 43.5 µM | [12] 88.5 µM | [14] 32.3 µM | [15] 74.8 µM

COc1ccc(/N=c2\ssc3c(=S)ssc23)cc1
inactive: [1] 3.61 µM | [2] 37.2 µM | [4] 34.9 µM | [5] 20 µM | [6] 15.7 µM | [16] 9.91 µM | [7] 31.1 µM | [8] 30.2 µM | [9] > 100 µM | [10] 35.7 µM | [11] 62.7 µM | [13] > 100 µM | [14] 13.9 µM | [15] 17 µM

Cc1cc(C)c2c(c1)Nc1ccccc1P2c1ccccc1 (configuration not stated)
inactive: [2] 26.6 µM | [3] > 100 µM | [4] 26.9 µM | [5] 36.8 µM | [6] 27.2 µM | [16] 3.89 µM | [7] 32.1 µM | [9] > 100 µM | [10] 59.6 µM | [12] 20.3 µM | [13] 25.8 µM | [15] 31.6 µM

COC(=O)n1c(CBr)c(Br)c2ccccc21
inactive: [1] 24.8 µM | [2] 32.6 µM | [3] > 100 µM | [4] 25.8 µM | [5] > 100 µM | [16] 21 µM | [7] 40.5 µM | [8] 30.6 µM | [10] 25.6 µM | [11] 42.9 µM | [12] 63.7 µM | [13] 21.2 µM | [14] 17.2 µM | [15] 48.2 µM

NCCCCC(=O)c1cccnc1
inactive: [1] > 100 µM | [5] > 100 µM | [6] > 100 µM | [16] > 100 µM | [7] > 100 µM | [8] > 100 µM | [9] > 100 µM | [10] > 100 µM | [11] > 100 µM | [12] > 100 µM | [13] > 100 µM | [14] > 100 µM | [15] > 100 µM

O=c1c(Cl)c(Cl)cnn1CCc1ccncc1
inactive: [1] 20.8 µM | [2] 14.5 µM | [4] 18.6 µM | [5] 16.7 µM | [6] 17.8 µM | [16] 36.6 µM | [7] 37.9 µM | [8] 19.5 µM | [10] 20.6 µM | [11] 12.5 µM | [12] 16.6 µM | [13] 18.3 µM | [15] 22.1 µM

C=CCCCn1ccc2ccccc21
inactive: [1] > 100 µM | [2] > 100 µM | [3] > 100 µM | [5] > 100 µM | [6] > 100 µM | [16] > 100 µM | [7] > 100 µM | [8] > 100 µM | [9] > 100 µM | [10] > 100 µM | [11] > 100 µM | [12] > 100 µM | [13] > 100 µM | [14] > 100 µM | [15] > 100 µM

CCCCCCCCCCCCCCCCCC(=O)OCC(C[As](=O)(O)O)OC(=O)CCCCCCCCCCCCCCCCC (configuration not stated)
inactive: [1] 18.4 µM | [2] > 100 µM | [4] > 100 µM | [5] > 100 µM | [16] 28.3 µM | [7] > 100 µM | [8] > 100 µM | [9] 18.2 µM | [10] 43.2 µM | [11] > 100 µM | [12] 34.4 µM | [13] 24.4 µM | [14] 33.1 µM | [15] > 100 µM

C/C(=N/NS(=O)(=O)c1ccccc1)c1cccc[n+]1[O-]
inactive: [1] > 100 µM | [2] > 100 µM | [4] > 100 µM | [5] > 100 µM | [16] > 100 µM | [7] > 100 µM | [8] > 100 µM | [9] > 100 µM | [10] > 100 µM | [11] > 100 µM | [12] > 100 µM | [13] > 100 µM | [14] > 100 µM | [15] > 100 µM

COC1=NN2C(OC)(c3ccccc3)c3c(-c4ccccc4)sc(-c4ccccc4)c3C2(c2ccccc2)S1 (configuration not stated)
inactive: [1] > 100 µM | [2] > 100 µM | [3] > 100 µM | [5] > 10 µM | [6] > 100 µM | [7] > 100 µM | [8] > 100 µM | [9] > 100 µM | [10] > 100 µM | [11] > 100 µM | [12] > 100 µM | [13] > 10 µM | [14] > 100 µM | [15] > 100 µM

CC1O[C@@H]2CCCCC(=O)[C@]2(C)[C@H]1C (some centres not stated)
inactive: [2] > 100 µM | [3] > 100 µM | [4] > 100 µM | [5] > 100 µM | [6] > 100 µM | [16] > 100 µM | [7] > 100 µM | [8] > 100 µM | [9] > 100 µM | [11] > 100 µM | [12] > 100 µM | [13] > 100 µM | [15] > 100 µM

From ChEMBL document CHEMBL1201862, “PubChem BioAssay data set” (2004)
